Laboratory results taken from US20130295080A1, “Pharmaceutical composition for treating melasma and preparation method thereof” (Jilin Zixin Pharmaceutical Research Institution LLC, priority 2011, published 2013).

Experiments:
Format in all cases: in vivo, Kunming female mice
[1] = viscosity of the whole blood of mice with progesterone-induced melasma; conditions: vitamin C group
SOD in mice livers = SOD in mice livers (reagent kit, spectrophotometer); conditions: vitamin C group
MDA in mice livers = assay: MDA content in mice livers; conditions: vitamin C group, dosage 0.1, once a day for 30 d, progesterone-modeled mice
SOD in mice skins = assay: SOD in mice skins; conditions: vitamin C group, dosage 0.1, once a day for 30 d, progesterone-modeled mice
MDA in mice skins = assay: MDA content in mice skins
NO in mice skins = assay: NO content in mice skins; conditions: vitamin C group, dosage 0.1, once a day for 30 d, progesterone-modeled mice
[2] = system: melanin cells in skins of mice; assay: melanin cells in skins of mice, HMB45 immunohistochemistry with image analysis; conditions: mouse skin, vitamin C group, progesterone-modeled mice
[3] = dosage 0.1, once a day for 30 d, progesterone-modeled mice
[4] = melanin-positive target, dosage 0.1, once a day for 30 d

## O=C1O[C@H]([C@@H](O)CO)C(O)=C1O [vitamin C]
[1]; shear rate 1/s, dosage 0.1, once a day for 30 d, progesterone-modeled mice
  blood viscosity with different shear rates (mPas) 1/s: 29.22 ± 2.18 mPas
[1]; shear rate 30/s, dosage 0.1, once a day for 30 d, progesterone-modeled mice
  blood viscosity with different shear rates (mPas) 30/s: 11.22 ± 1.75 mPas
[1]; shear rate 100/s, dosage 0.1, once a day for 30 d, progesterone-modeled mice
  blood viscosity with different shear rates (mPas) 100/s: 4.60 ± 1.36 mPas
[1]
  blood viscosities with different shear rates compared with the normal control group: obviously increased
[1]; [3]
  blood viscosity with different shear rates (mPas) 3/3: 28.85 ± 4.35 mPas
SOD in mice livers
  SOD activities compared with the modeling control group: obviously increased
SOD in mice livers; [3]
  SOD: 45.62 ± 16.04
MDA in mice livers
  MDA: 4.58 ± 1.26
SOD in mice skins
  SOD: 19.95 ± 5.33
MDA in mice skins; vitamin C group, dosage 0.1, once a day for 30 d, progesterone-modeled mice
  MDA: 4.20 ± 1.34
MDA in mice skins; vitamin group
  MDA contents compared with the modeling control group: obviously decreased
NO in mice skins
  NO: 1.71 ± 0.52
[2]; [4]
  average optical density: 0.33 ± 0.14
  integrated optical density: 1152.52 ± 344.09
[2]; dosage 0.1, once a day for 30 d
  average size of positive target: 3720.56 ± 1191.13
